Measured values reported in ChEMBL document CHEMBL3244027, “Syntheses, analgetic activity, and physical dependence capacity of 5-phenyl-6,7-benzomorphan derivatives” (J Med Chem, 1979).
Calls of active or inactive are those of the source. The calls are words filed in the database; no cut-off is given here.

How the values were obtained:
Mus musculus [1] = assay: Analgetic activity against CF-1 mouse assessed as increase in reaction time at 160 mg/kg, sc by heat stimulus induced tail flick response assay; assay type: functional, organism-based; parameters: dose 160 mg/kg
Mus musculus [2] = assay: Analgetic activity against CF-1 mouse assessed as increase in reaction time at 80 mg/kg, sc by heat stimulus induced tail flick response assay; assay type: functional, organism-based; parameters: dose 80 mg/kg
Mus musculus [3] = organism: Mus musculus; assay: Analgetic activity in naloxone challenged mouse assessed as frequency pretreated for 2 day by mouse jumping test; assay type: functional, organism-based
Mus musculus [4] = assay: Analgetic activity against CF-1 mouse assessed as increase in reaction time at 320 mg/kg, sc by heat stimulus induced tail flick response assay; assay type: functional, organism-based; parameters: dose 320 mg/kg
Mus musculus [5] = assay: Analgetic activity against CF-1 mouse assessed as increase in reaction time at 320 mg/kg, po by heat stimulus induced tail flick response assay; assay type: functional, organism-based; parameters: dose 320 mg/kg
Mus musculus [6] = organism: Mus musculus; assay: Analgetic activity in nalorphine challenged mouse assessed as frequency pretreated for 2 day by mouse jumping test; assay type: functional, organism-based
Mus musculus [7] = assay: Analgetic activity in sc dosed CF1S mouse assessed as writhing by phenylquinone writhing test; assay type: functional; conditions: Mus musculus, CF1S, sc; read-out: ED50
Mus musculus [8] = assay: Analgetic activity against CF-1 mouse assessed as increase in reaction time at 40 mg/kg, po by heat stimulus induced tail flick response assay; assay type: functional, organism-based; parameters: dose 40 mg/kg
Mus musculus [9] = assay: Analgetic activity against CF-1 mouse assessed as increase in reaction time at 20 mg/kg, sc by heat stimulus induced tail flick response assay; assay type: functional, organism-based; parameters: dose 20 mg/kg
Mus musculus [10] = assay: Analgetic activity against CF-1 mouse assessed as increase in reaction time at 40 mg/kg, sc by heat stimulus induced tail flick response assay; assay type: functional, organism-based; parameters: dose 40 mg/kg
Mus musculus [11] = assay: Analgetic activity against CF-1 mouse assessed as increase in reaction time at 80 mg/kg, po by heat stimulus induced tail flick response assay; assay type: functional, organism-based; parameters: dose 80 mg/kg
Mus musculus [12] = assay: Analgetic activity against CF-1 mouse assessed as increase in reaction time at 160 mg/kg, po by heat stimulus induced tail flick response assay; assay type: functional, organism-based; parameters: dose 160 mg/kg
Mus musculus [13] = assay: Analgetic activity in po dosed CF1S mouse assessed as writhing by phenylquinone writhing test; assay type: functional; conditions: Mus musculus, CF1S, po; read-out: ED50
Mus musculus [14] = assay: Analgetic activity against CF-1 mouse assessed as increase in reaction time at 5 mg/kg, sc by heat stimulus induced tail flick response assay; assay type: functional, organism-based; parameters: dose 5 mg/kg

In the case of `C[C@@H]1C2Cc3ccc(O)cc3C1(c1ccccc1)CCN2C` (mixture of isomers), the Activity (Mus musculus [1]) is reported as “Active”.
In the case of `CN1CCC2(c3ccccc3)CC1Cc1ccc(O)cc12` (stereo in doubt; 42), the Activity (Mus musculus [2]) is reported as “inactive”.
For `C#CCN1CCC2(c3ccccc3)c3cc(O)ccc3CC1C2C` (centres undefined), the Activity (Mus musculus [3]) was “inactive”.
With `CC1C2Cc3ccc(O)cc3C1(c1ccccc1)CCN2` (stereo in doubt; 110) the Activity (Mus musculus [4]) was “inactive” and the Activity (Mus musculus [5]) was “inactive”.
With `CC1C2Cc3ccc(O)cc3C1(c1ccccc1)CCN2CCC(C#N)(c1ccccc1)c1ccccc1` (stereo in doubt; 189) the Activity (Mus musculus [5]) was “inactive” and the Activity (Mus musculus [6]) was “inactive”.
`C[C@@H]1C2Cc3ccc(O)cc3C1(c1ccccc1)CCN2CCC(C)(C)O` (some centres undefined) was tested, and the Activity (Mus musculus [4]) was “inactive” and the ED50 (Mus musculus [7]) was 78 mg/kg.
`CC1C2Cc3ccc(O)cc3C1(c1ccccc1)CCN2C` (centres undefined) was tested, and the Activity (Mus musculus [8]) was “Active” and the Activity (Mus musculus [9]) was “Active”.
`CN1CCC2(c3ccccc3)CC1Cc1ccc(O)cc12` (racemic) was tested, and the Activity (Mus musculus [9]) was “Active”.
In the case of `CCOC(=O)CNC(=O)Oc1ccc2c(c1)C1(c3ccccc3)CCN(C)C(C2)[C@H]1C` (some centres undefined), the Activity (Mus musculus [10]) is reported as “Active” and the Activity (Mus musculus [11]) is reported as “Active”.
`Cl.Oc1ccc2c(c1)C1(c3ccc(Cl)cc3)CCN(CCc3ccccc3)C(C2)C1` (racemic) was tested, and the Activity (Mus musculus [11]) was “inactive” and the ED50 (Mus musculus [7]) was over 100 mg/kg.
`CN1CCC2(c3ccccc3)CC1Cc1cc(O)c(O)cc12` (racemic) was tested, and the Activity (Mus musculus [4]) was “inactive”.
In the case of `c1ccc(C23CCNC(Cc4ccccc42)C3)cc1` (racemic), the Activity (Mus musculus [2]) is reported as “Active”.
In the case of `Oc1ccc2c(c1)C1(c3ccccc3)CCN(CCCc3ccccc3)C(C2)C1` (racemic), the Activity (Mus musculus [12]) is reported as “Active” and the ED50 (Mus musculus [13]) is reported as over 100 mg/kg.
For `CN1CCC(c2ccccc2)=CC1Cc1ccc(O)cc1` (centres undefined), the Activity (Mus musculus [9]) was “Active”, the ED50 (Mus musculus [7]) was 1.5 mg/kg and the ED50 (Mus musculus [13]) was 27 mg/kg. For the same compound, the Activity (Mus musculus [3]) was “inactive”.
`CC1C2Cc3ccc(O)cc3C1(c1ccccc1)CCN2CCC(=O)c1ccccc1` (centres undefined) was tested, and the Activity (Mus musculus [12]) was “Active”.
With `Oc1ccc2c(c1)C1(c3ccccc3)CCN(CCc3ccccc3)C(C2)C1` (centres undefined) the Activity (Mus musculus [11]) was “Active” and the Activity (Mus musculus [3]) was “Active”.
With `CCCCCN1CCC2(c3ccccc3)c3cc(O)ccc3CC1C2C` (racemic) the Activity (Mus musculus [14]) was “Active”.
With `COc1ccc(CC2C=C(c3ccc(Cl)cc3)CCN2C)cc1` (centres undefined) the Activity (Mus musculus [8]) was “Active” and the Activity (Mus musculus [3]) was “inactive”.
With `OCCN1CCC2(c3ccccc3)CC1Cc1ccc(O)cc12` (racemic) the Activity (Mus musculus [4]) was “inactive” and the ED50 (Mus musculus [7]) was over 100 mg/kg.
In the case of `Oc1ccc2c(c1)C1(c3ccccc3)CCN(C/C=C/Cl)C(C2)C1` (racemic), the ED50 (Mus musculus [7]) is reported as over 100 mg/kg and the Activity (Mus musculus [3]) is reported as “inactive”.
With `CN1CCC(c2ccccc2)=CC1Cc1ccc(F)cc1` (centres undefined) the Activity (Mus musculus [2]) was “Active”.
For `O=[N+]([O-])c1ccc(CCN2CCC3(c4ccccc4)CC2Cc2ccc(O)cc23)cc1` (racemic), the Activity (Mus musculus [4]) was “inactive”.
`CCCN1CCC2(c3ccccc3)c3cc(O)ccc3CC1C2C` (stereo in doubt; 173) was tested, and the Activity (Mus musculus [4]) was “inactive”.
In the case of `CC(C)=CCN1CCC2(c3ccccc3)c3cc(O)ccc3CC1C2C` (stereo in doubt; 207), the Activity (Mus musculus [3]) is reported as “inactive”.
With `COc1ccc(CC2C=C(c3ccccc3)CCN2C)cc1OC` (centres undefined) the Activity (Mus musculus [10]) was “Active”.
In the case of `Oc1ccc2c(c1)C1(c3ccc(Cl)cc3)CCNC(C2)C1` (racemic), the Activity (Mus musculus [4]) is reported as “inactive”.
For `CC1C2Cc3ccc(O)cc3C1(c1ccccc1)CCN2Cc1ccco1` (centres undefined), the Activity (Mus musculus [4]) was “inactive”.
`CC1C2Cc3ccc(O)cc3C1(c1ccccc1)CCN2CC1CCC1` (stereo in doubt; 219) was tested, and the Activity (Mus musculus [3]) was “inactive”.
`COc1cc(CC2C=C(c3ccccc3)CCN2C)cc(OC)c1OC` (centres undefined) was tested, and the Activity (Mus musculus [11]) was “Active”.
For `CC1C2Cc3ccc(O)cc3C1(c1ccccc1)CCN2CCO` (centres undefined), the Activity (Mus musculus [2]) was “inactive”.
`CCC1=C(c2ccccc2)CCN(C)C1Cc1ccc(O)cc1` (centres undefined) was tested, and the Activity (Mus musculus [2]) was “Active” and the Activity (Mus musculus [3]) was “inactive”.
`Br.CCN1CCC2(c3ccccc3)CC1Cc1ccccc12` (racemic) was tested, and the Activity (Mus musculus [4]) was “inactive” and the ED50 (Mus musculus [7]) was 16 mg/kg.
For `CN1CCC2(c3ccc(Cl)cc3)CC1Cc1ccc(O)cc12` (racemic), the Activity (Mus musculus [10]) was “Active”.
With `Oc1ccc2c(c1)C1(c3ccccc3)CCN(CC3CCC3)C(C2)C1` (stereo in doubt; 145) the Activity (Mus musculus [3]) was “inactive”.
For `CCCCCN1CCC2(c3ccccc3)c3cc(OC(C)=O)ccc3CC1C2C` (centres undefined), the Activity (Mus musculus [8]) was “Active” and the Activity (Mus musculus [14]) was “Active”.
In the case of `CN(C)CCCN1CCC2(c3ccccc3)CC1Cc1ccc(O)cc12` (racemic), the Activity (Mus musculus [4]) is reported as “inactive”.
With `CC(C)CCN1CCC2(c3ccccc3)c3cc(O)ccc3CC1[C@H]2C` (some centres undefined) the Activity (Mus musculus [12]) was “Active”.
